# Experimental data from patent US6346529B1, “Antiviral therapy using thiazine dyes” (Oklahoma Medical Research Foundation, priority 1988, dated 2002).
# How the values were obtained:
# Type in all cases: cell-based
# [1] = system: HIV-1 (strain LAV-1); test: Inhibition of HIV-1 replication in human PBMC (supernatant RT activity); details: Human immunodeficiency virus 1, PBMC; light/dark not stated; read-out: Antiviral Effect: EC50 HIV-1
# Description: Cells: Human peripheral blood mononuclear cells (PBMC) from healthy HIV-1 seronegative and hepatitis B virus seronegative donors were isolated by Ficoll-Hypaque discontinuous gradient centrifugation at 1,000×g for 30 minutes, washed twice in phosphate-buffered saline (pH 7.2; PBS), and pelleted at 300×g for 10 minutes. Before infection, the cells were stimulated by phytohemagglutinin (PHA) at a concentration of 16.7 μg/ml, and 4 mM sodium bicarbonate buffer.
# Retrovirus: HIV-1 (strain LAV-1) was obtained from Dr. P. Feorino (Centers for Disease Control, Atlanta, Ga.). The virus was propagated in human PBMC using RPMI 1640 medium, as described previously by McDougal, et al., (“Immunoassay for the detection and quantitation of infectious human retrovirus, lymphadenopathy-associated virus (LAV),” J. Immun. Meth. 76, 171-183, 1985) without PBA or fungizone and supplemented with 7% (v/v) interleukin-2 (Advanced Biotechnologies, Silver Spring, Md.), 7 μg/ml DEAE-dextran (Pharmacia, Uppsala, Sweden), and 370 U/ml anti-human leukocyte (alpha) interferon (ICN, Lisle, Ill.). Virus obtained from cell-free culture supernatant was titrated and stored in aliquots at −70° C. until use.
# Inhibition of Virus Replication in Human PBMC: Uninfected PHA-stimulated human PBMC were uniformly distributed among 25 cm^2 flasks to give a 5 ml suspension containing about 2×10^6 cells/ml. Suitable dilutions of virus were added to infect the cultures. The mean reverse transcriptase (RT) activity of the inocula was 50,000 dpm/ml corresponding to about 100 TCID50, as determined by Groopman, et al., (1987), “Characterization of Serum Neutralization Response to the Human Immunodeficiency Virus (HIV),” AIDS Res. Human Retro. 3, 71-85. The drugs, at twice their final concentrations in 5 ml of RPMI 1640 medium (supplemented as described above), were added to the cultures. Uninfected and untreated PBMC at equivalent cell densities were grown in parallel as controls. The cultures were maintained in a humidified 5% CO2-95% air incubator at 37° C. for six days after infection at which point all cultures were sampled for supernatant RT activity.
# RT Activity Assay: A […] aliquot of supernatant from each culture was clarified of cells at 300×g for 10 minutes. […]
# The RT assay was performed in 96-well microtiter plates, as described by Spira, et al. (1987), “Micromethod for Assaying the Reverse Transcriptase of LAV-HTLV-III/Lymphadenopathy-Associated Virus,” J. Clin. Microbiol. […] Four ml of scintillation fluid (Econofluor, NEN Research Products, Boston, Mass.) were added and the amount of radioactivity in each sample was determined using a Packard Tri-Carb liquid scintillation analyzer (model 2,000CA). […]
# [2] = system: HSV-1 (F strain); test: HSV plaque reduction assay in Vero cells, HSV-1; details: Human alphaherpesvirus 1, Vero, light/dark not stated; read-out: Antiviral Effect: EC50 HSV-1
# Description: (§1) HSV Preparation: Confluent HEp-2 cells, in a roller bottle (Falcon, 850 cm^2), were infected at an input multiplicity of 0.01 PFU per cell (to minimize production of defective viruses). During the two-hour absorption period, the cells were exposed to the virus inoculum diluted in absorption buffer (10 ml PBS containing 1% newborn calf serum and 0.1% glucose). The virus inoculum was then removed and replaced with Hanks' Minimum Essential Medium (MEM) containing 2% inactivated newborn calf serum, penicillin (100 U/ml) and streptomycin (100 μg/ml) (P and S), sodium bicarbonate (2 g/L) and HEPES (25 mM) (maintenance medium). The infected cells were incubated at 37° C. for 3 to 4 days, until the cells could be easily shaken from the plastic surface of the culture bottles. The cells were then collected by centrifugation, suspended in a small volume of spent culture fluid (5 ml per 2×10^8 cells) and sonicated 3 times for one min on ice. The disrupted cells were centrifuged (2,000 g for 15 min at 4° C. and the supernatant was diluted with an equal volume of sterile skimmed milk (as stabilizer) and aliquots were frozen at −70° C.
# (§2) HSV Plaque Reduction Assay: Near confluent Vero (African Green Monkey) cells in 6-well plates were infected with 100 μl virus diluted in absorption buffer to give 100-200 plaques per well. The plates were then incubated at 37° C. for 1 hour with intermittent rocking every 15 minutes. The inoculum was aspirated and the compounds at different concentrations (dissolved in maintenance medium) were added to replicate wells. For these assays, 0.1% pooled human gamma globulin was included in the media. The plates were placed in 5% CO2-95% air incubator and the plaques were allowed to develop for 48 h prior to fixation (buffered 10% Formalin acetate), staining (0.5% crystal violet in 20% EtOH/H2O) and enumeration. The degree of inhibition (percent plaques of control) was calculated by counting the mean plaque counts for the different drug dilutions. […] For routine antiviral drug screening, we used the F strain of HSV-1 and the G strain of HSV-2 (Ejercito, et al., “Characterization of Herpes Simplex virus Strains Differing in Their Effect on Social Behavior of Infected Cells,” J. Gen. Virol. 2, 357-364 (1968)). […] Acyclovir (ACV) was used as a positive control for the studies on HSV.
# (§3) Median-Effect Method: EC50 and IC50 values were obtained by analysis of the data using the median-effect equation (Chou, T., et al., “Quantitative Analysis of Dose-Effect Relationships: The Combined Effects of Multiple Drugs or Enzyme Inhibitors,” Adv. Enz. Regul. 22, 27-55 (1984).
# [3] = system: HSV-2 (G strain); test: HSV plaque reduction assay in Vero cells, HSV-2; details: Human alphaherpesvirus 2, Vero, light/dark not stated; read-out: Antiviral Effect: EC50 HSV-2
# Description: as §1, §2, §3
# [4] = system: HIV (LAV-I); test: HIV in human PBMC, P24 levels by EIA
# Description: While the previous example measured RT activity, the present example utilizes a direct quantitation of a viral protein (P24) as an indicator of antiviral effectiveness.
# Peripheral blood mononuclear (PBM) cells were infected with HIV and treated with methylene blue as described above. The EC50 levels were calculated from enzyme immuno-assay (EIA) measurements of viral coat protein P24. The P24-specific EIA kit was purchased from Abbott Labs.
smiles,measurement,setting,value
"Cc1cn([C@H]2C[C@H](N=[N+]=[N-])[C@@H](CO)O2)c(=O)[nH]c1=O [AZT, 3′-azido-3′-deoxythymidine]",EC50,[1],0.22 nM
same,EC50,[2],> 100000 nM
same,EC50,[3],> 100000 nM
same,ng P24/ml,[4]; 0.0001 μM,360.7 ng P24/ml
same,ng P24/ml,[4]; 0.001 μM,266.2 ng P24/ml
same,ng P24/ml,[4]; 0.01 μM,36.1 ng P24/ml
same,ng P24/ml,[4]; 0.1 μM,5.2 ng P24/ml
same,inhibition at 0.0001 µM,"[4]; Human immunodeficiency virus 1, PBMC, 0.0001 μM, read-out: % Inhibition (corrected)",-0.5%
same,inhibition at 0.001 µM,"[4]; Human immunodeficiency virus 1, PBMC, 0.001 μM, read-out: % Inhibition (corrected)",25.8%
same,inhibition at 0.01 µM,"[4]; Human immunodeficiency virus 1, PBMC, 0.01 μM, read-out: % Inhibition (corrected)",89.9%
same,inhibition at 0.1 µM,"[4]; Human immunodeficiency virus 1, PBMC, 0.1 μM, read-out: % Inhibition (corrected)",98.5%
same,EC50,"[4]; Human immunodeficiency virus 1, PBMC, light/dark not stated, read-out: EC50 (P24)",6.4 nM
